Where a SMILES comes first, the peptide text is derived from it. [ ]: non-standard residue; d: D form. 2Nal = N[C@@H](Cc1ccc2ccccc2c1)C(=O)O
Key:
PC9 cells = assay: Cell live image (phase-contrast and immunofluorescence), PC9; assay type: cell-based, human; conditions: 12 μM, 5 minutes
Protocol: PC9 and HFW cells (˜10^5 cells) were pre-seeded in 6-cm polystyrene dishes for 24 hours. Cell nuclear is labeled by 4′,6-diamidino-2-phenylindole (DAPI) with a final concentration of 10 μg/ml. After 10 minutes of incubation, the cells were washed by PBS. FITC-K4R2Nal2S1-NH2 was added to the dishes with the final concentration of 12 μM. After incubation for 5, 10, 20 minutes or 1 hour at 37° C., the cells were washed with PBS. The images of FITC-K4R2Nal2S1-NH2 in PC9 cells and HFW cells were observed using the Inverted Fluorescent Microscope Zeiss/Observer.Z1.
To investigate the mode of actions of K4R2Nal2-S1 peptide on human cancer cell line (PC9) and human fibroblast (HFW), cells were treated with FITC-labeled K4R2-Nal2-S1. Nucleus was labeled with DAPI, and the blue signal was observed by UV exciting light. The fluorescence distribution of FITC-labeled K4R2-Nal2-S1 peptide on cell membrane was visualized by the inverted fluorescent microscope.

[1] = test system: Gram-positive and Gram-negative bacterium; assay: Antimicrobial activity under several salt concentrations (summary in words); assay type: cell-based
Protocol: Escherichia coli strain (ATCC 25922), Staphylococcus aureus subsp strain (ATCC 25923, methicillin-resistant), and Pseudomonas aeruginosa Migula strain (ATCC 27853, ampicillin-resistant) were used to test the antibacterial activity of the peptides. Bacteria were cultured in sterilized Mueller-Hinton (MH) culturing medium at 200 rpm and 37° C. for 8 hours.
The antibacterial activities were determined by the standard broth microdilution method of National Committee for Clinical Laboratory Standards with the LYM broth. The LYM broth contains 5.4 mM KCl, 5.6 mM Na2HPO4, 0.5 mM MgSO4, and 1.0 mM sodium citrate. In addition, 0.4 mg of ZnCl2, 2.0 mg of FeCl3. 6H2O, 0.1 mg of CuSO4. 5H2O, 0.1 mg of MnSO4.H2O, 0.1 mg of Na2B4O7.10H2O, 700 mg of amino acid mixtures without tryptophan (Clontech), and 20 mg of L-Tryptophan were added per liter of medium. A vitamin mixture (100×, Sigma) and glucose at final concentration of 2% were also added.
1 μl peptide solutions (ranging from 5000 μg/ml to 78 μg/ml in serial dilution) was prepared and mixed with 99 μl inoculum (5×10^5 CFU/ml) in polypropylene 96-well plate. The turbidity at OD 600 nm was measured by ELISA plate reader (Thermo Max, Molecular Devices, Sunnyvale, Calif.). The absorbance of culture medium and inoculum suspension without peptides were used as the negative and positive control, respectively. […]

caspase 3 in PC9 = assay: Western blot for activated caspase 3, PC9; assay type: cell-based, human; conditions: 12 μM
Protocol: PC9 cells were seeded in 10-cm polystyrene dishes for 48 hours. About seventy percent full of cells were treated with 12 μM K4R2Nal2S1 for 10 minutes, 1 hour or 24 hours. RPMI medium without peptide treated for 24 hours which was used as negative control.
Cells were collected by 200 μl RIPA and protease inhibitor blended buffer. After sonication and centrifugation for 10 minutes, 13000 rpm at 4° C., supernatants (lysis of cell) were collected. Protein concentrations of cell extracts were determined by Bradford reagent. Equal amount of boiled lysates (total 50 μg) were separated on 10% acrylamide gel. The gel was transferred to PVDF membrane in electro-blot system, 300 V, […], and 80 minutes.
The membrane was incubated in blocking buffer (5% skim milk, TBST buffer) for 1 hour at room temperature and washed in TBST buffer twice. Blocked membrane was incubated with Caspase-3 antibody (EPITOMICS, clone ID: E83-77) overnight at 4° C., washed for five times, and then incubated in secondary antibody (HRP, GeneTex catalogue number: GTX21311-01) for 1 hour at room temperature. The signals were visualized by enhanced chemiluminescence (ECL) and recorded by a detected system (ImageQuant LAS 4000 mini).

human fibroblast (HFW) = assay: MTT cytotoxicity to normal fibroblasts; assay type: cell-based; conditions: MTT assay
Protocol: Human lung cancer line PC9 and A549, oral squamous cell carcinoma cell line OECM-1 were cultured in RPMI medium supplemented with 10% fetal bovine serum and antibiotic. Human tongue carcinoma cell line SAS, oral cancer cell line C9, and human diploid fibroblast (HFW) were cultured in DMEM medium supplemented with 10% fetal bovine serum and antibiotic. Cells were cultured in a humidified incubator containing 5% CO2 at 37° C.
The MTT assay was employed to determine the in vitro cytotoxicity. All cancer cell lines were seeded in 96-well plate with concentration 5000 cells/100 μl/well and incubated for 24 hours. HFW was seeded with 8000 cells/100 μl/well.
After medium was removed, 100 μl fresh medium containing peptide (ranging from 50 μM to 3.13 μM, HFW was treated with 75 μM and 100 μM peptide additionally) was added to the wells. Following 3, 12 or 24 hour incubation, fresh medium with MTT (0.5 mg/ml) was replaced and incubated for 3 hours. After medium/MTT was removed, DMSO was added at 100 μl for dissolving the formazan crystal. Cell survival rate was calculated by measuring the absorbance at 540 nm using Multi-labeled Microplate Reader (VICTOR3). For cancer cells, medium mixed with H2O2 (aq) represented positive control (all cells died) while medium only represented negative control. For normal cells, medium only represented positive control (all cells lived) while medium mixed with H2O2 (aq) represented negative control (all cells died).
The cytotoxicities of S1 and its analogs on human lung cancer cells (i.e, PC9, PC9-G and A549), human oral cancer cells (i.e, C9, OECM-1, and SAS), and human fibroblast (HFW) were evaluated by MTT assay for 3, 12 and 24 hours.

`CC(=O)N[C@@H](CCCCN)C(=O)N[C@@H](CCCCN)C(=O)N[C@@H](CCCCN)C(=O)N[C@@H](CCCCN)C(=O)N[C@@H](CCCNC(=N)N)C(=O)N[C@@H](CCCNC(=N)N)C(=O)N[C@@H](Cc1ccc2ccccc2c1)C(=O)N[C@@H](Cc1ccc2ccccc2c1)C(=O)N[C@@H](CCCCN)C(=O)N[C@@H](CCCCN)C(=O)N[C@@H](Cc1c[nH]c2ccccc12)C(=O)N[C@@H](CCCNC(=N)N)C(=O)N[C@@H](CCCCN)C(=O)N[C@@H](Cc1c[nH]c2ccccc12)C(=O)N[C@@H](CC(C)C)C(=O)N[C@@H](C)C(=O)N[C@@H](CCCCN)C(=O)N[C@@H](CCCCN)C(N)=O` [K4R2-Nal2-S1, Ac-KKKKRR-Nal-Nal-KKWRKWLAKK-NH2] (Ac-KKKKRR[2Nal][2Nal]KKWRKWLAKK-NH2) was tested, and the “cellular swelling (phase-contrast microscopy)” value (PC9 cells) was “induced cellular swelling”, the effectiveness against bacterium ([1]; LYM broth condition) was “very effective” and the “antimicrobial activities in high-salt conditions” value ([1]; addition of 100 or 200 mM NaCl) was “promising activities”. The “caspase 3 activation (immunoblotting)” value (caspase 3 in PC9) was “activated caspase 3” and the “degrees of cytotoxicities to HFW (rank order)” value (human fibroblast (HFW)) was “S1 peptide<K4R2-Nal2-S1 peptide<K6-Nal2-S1 peptide<Nal2-S1 peptide”.

— patent publication US10093699B2, “Peptides with antimicrobial, anticancer and/or wound-healing promoting activities, pharmaceutical compositions containing the same, and use of the peptides with antimicrobial, anticancer and/or wound-healing promoting activities” (priority 2015, dated 2018)
